A short description of data set [1]: Screening of CST structural analogs for blood pressure reduction. Particulars: in vivo.
For data set [2], the target named is Chk2 protein kinase (Homo sapiens, UniProt O96017). The settings on record: Jobson et al. (9); cited from earlier work.
Data set [3] has as its system CST-KO mice. Nature of the data set: ITT in insulin resistant CST-KO mice with CST, RI-CST or NSC-177941. The class given is in vivo. The settings on record: for insulin sensitivity during ITT: NCD-fed CST-KO mice, insulin 0.4 mU/g BW. From the text: FIG. 16. […] Figures in parentheses indicate number of animals.
The test system of data set [4] is primary adipocytes. The experiment in a line: Lipolytic glycerol release from primary adipocytes. The class given is cell-based, mice. Particulars: for effect on the lipolytic effect of isoproterenol: adipocytes, with isoproterenol 10 μM. The protocol:
Mice were fasted for 12 hr prior to blood draw. Triglycerides (TG) and non-esterified fatty acids (NEFA) were assayed using kits from Wako Diagnostics (Richmond, Va.). Glycerol was assayed using a kit from Sigma (St Louis, Mo.). Media from the explant cultures and mouse serum were analysed for glycerol and NEFA as a measure of lipolysis. ELISA kits were used to determine plasma levels of leptin, adiponectin (Millipore, Billerica, Mass.) and CST (Bachem, Torrance, Calif.). For CST assay, plasma samples and reference standards were passed through mini C18 columns and the flow-through fractions were assayed. The same kits were used for measurements in culture media.
Primary adipocytes were isolated from epididymal fat pads essentially as described (43). Adipose tissues from WT and Chga-KO mice were minced in Krebs-Ringer bicarbonate-Hepes (KRBH) buffer, pH 7.4, containing 10 mM bicarbonate, 30 mM Hepes, 200 nM adenosine, 2.5 mM glucose and 1% fatty-acid-free BSA, and digested for 30-40 min with Type I collagenase (10 mg/g tissue; Invitrogen, Carlsbad, Calif.) with gentle swirling in a 37° C. incubator. The digestion mixture was then filtered through a nylon strainer and centrifuged at 400×g for 1 min. The oily layer (released from broken cells) above floating fat cells was skimmed off, and fat cells were recovered from the top and washed three times with warm KRBH.

In data set [5] the test system is PC-12 neuroendocrine cells. Nature of the data set: cAMP production in PC-12 cells. The class given is cell-based. The settings on record: CST 100 nM, ISO 10 μM, 10 min.
The test system of data set [6] is 3T3-L1 adipocytes. The experiment in a line: cAMP production in 3T3-L1 adipocytes. The settings on record: CST 100 nM, ISO 10 μM, 10 min. The class given is cell-based. (Cyclic AMP is a second messenger, typically raised through Gs and lowered through Gi signalling.)
In data set [7] the test system is HFD-fed Chga-KO mice. The experiment in a line: Peptide supplementation to HFD-fed Chga-KO mice (insulin sensitivity). The settings on record: HFD (60%)-fed Chga-KO mice. The class given is in vivo.
Data set [8] concerns STAT3 and AMPK phosphorylation. Nature of the data set: Stat3 and AMPK signaling in adipose explants from DIO mice. The class given is cell-based. The settings on record: CST in vivo, leptin 1 μM ex vivo 30 min. The protocol: (§1) FIG. 9. Stat3 and AMPK signaling in the adipose tissue explants from DIO and Ob/Ob mice treated with saline, CST (in vivo) and leptin (ex vivo). Explants from DIO mice (A&B) and Ob/Ob mice (C&D) were incubated with saline or leptin (1 μM) for 30 min, homogenized and immunoblotted for phospho- and total Stat3 (A&C) as well as phospho- and total AMPK signals (B&D). Results are presented as the ratio of signal strength of phospho-over total.
(§2) Adipose tissue explants were prepared as described (42). Epididymal fat pads from 12 hr fasted WT, Chga-KO, DIO and Ob/Ob mice with or without CST treatment were collected in Kreb-Ringer-phosphate (KRP) buffer containing 10 mM Hepes and 0.5% BSA. Tissues were minced to 1-2 mm size and treated with 100 nM CST, 1 μM leptin, or saline for 30 min (for signaling analysis) or 3 hr (for lipolysis and β-oxidation assays). Explants were also treated acutely with CST, leptin, a combination, or saline. At the end, incubation media were saved for analysis of glycerol and fatty acid release. Explants were washed prior to homogenization for immunoblotting and analysis of fatty acid oxidation.
(§3) Adipose tissue explants after treatments ex vivo and tissues from mice treated in vivo were homogenized in a buffer containing phosphatase and protease inhibitors (20 mM Tris/HCl (pH 7.5), 250 mM sucrose, 2 mM EDTA, 2 mM EGTA, 2 mM Na3VO4, 10 mM NaF, 2 mM Na4P2O7, 1 mM phenylmethylsulfonyl fluoride, 20 μg/ml leupeptin, 10 μg/ml aprotinin, and 1 μM LR-microcystin) as described (38,44). Homogenates were subjected to SDS-PAGE and immunoblotted. Primary antibodies for AMPK and Stat3 were from Cell Signaling Technology (Beverly, Mass.). The chemiluminescence kit was from Pierce (Rockford, Ill.).

In data set [9] the test system is adipose tissue explants from Ob/Ob mice. Nature of the data set: Lipolysis and fatty acid oxidation in adipose explants of Ob/Ob mice. The class given is cell-based. The procedure:
(§4) FIG. 8. Lipolysis and fatty acid oxidation in the adipose tissue explants of DIO and Ob/Ob mice after treatment with saline or CST for 16 days. Explants were incubated with saline or leptin (1 μM) for 3 hr and the concentrations of glycerol (A&C) and NEFA (B&D) released into the media from DIO (A&B) and Ob/Ob (C&D) explants were determined as a measure of lipolysis. Homogenates of the explants from DIO (E) and Ob/Ob […] were used to determine their capacity for oxidation of U-^14C-palmitate in response to the treatment with saline, CST, leptin and CST+leptin. The ^14CO2 released was captured and counted as the measure of fatty acid oxidation.
as §2
(§5) Oxidation of radiolabeled palmitate in the homogenates of adipose tissue explants as described previously (45). For oxidation studies of cultured cells, HepG2 (hepatocytes) and 3T3-L1 preadipocytes were obtained from ATCC and cultured following supplier's protocol. Confluent 3T3-L1 cultures were differentiated into adipocytes by treating with a cocktail of dexamethasone (100 nM), IBMX ([…]) and insulin (100 nM) for 10 days. Media were then switched to serum-free DMEM with 1% BSA. Hepatocytes were assayed for lipogenesis and fat oxidation in response to CST treatment. Serum-free cultures were treated with CST (100 nM) for 24 hr followed by a 2 hr incubation with U^14C-palmitate (0.5 μCi/ml). Fatty acid oxidation in cells was determined by modifying a published method (46). Specifically, the culture media in 24-well plates were acidified with 10% HClO4 after incubation with the labeled fatty acid and immediately covered with a thick filter paper sheet (cut to size) soaked in 2 N NaOH and placed underneath the plastic lid. The whole plate was sealed with parafilm. After further incubation for 2 hr, the filter paper sheet was marked as circles around the rim of the wells and then the circles were excised. The filter discs were counted to determine the amount of ^14CO2 absorbed in the papers. Cells in the culture wells were lysed in 1 N NaOH and protein content was assayed using Folin's reagent (BioRad, Hercules, Calif.).

Data set [10] relates to STAT3 and AMPK phosphorylation. Nature of the data set: Stat3 and AMPK signaling in adipose explants from Ob/Ob mice. The class given is cell-based. The settings on record: CST in vivo, leptin 1 μM ex vivo 30 min. The protocol:
as §1, §2, §3

Data set [11] relates to AMPK and Stat3 phosphorylation. The experiment in a line: AMPK and Stat3 signaling in adipose tissue explants from Chga-KO mice. The class given is cell-based. The settings on record: leptin 1 μM 30 min. The protocol:
FIG. 6. Regulation of AMPK and Stat3 signaling by CST in adipose tissue explants. Explants from Chga-KO mice were treated with saline or CST (100 nM for 30 min) and immunoblotted for pAMPK and AMPK (A). Adipose explants from WT and Chga-KO mice were immunoblotted for pAMPK and AMPK after treatment with saline or leptin (1 μM) for 30 min (B). pAMPK and AMPK (C) and pStat3 and Stat3 (D) signaling in adipose explants from WT and Chga-KO mice after treatment for 30 min with saline, CST (100 nM), leptin (1 μM) or leptin plus CST.
as §2, §3

In data set [12] the test system is adipose tissue explants from DIO mice. The experiment in a line: Lipolysis and fatty acid oxidation in adipose explants of DIO mice. The class given is cell-based. The protocol:
as §4, §2, §5

For data set [13] the following is noted: reference (8); cited from earlier work.
For data set [14], the system named is Chga-/- mice. The settings on record: reference (8), cited from earlier work.
The test system of data set [15] is Chga-/- mice. Nature of the data set: Blood pressure in hypertensive Chga-KO mice. The class given is in vivo.
The mark [16] stands for this setting: CST in vivo 16 days, leptin 1 μM ex vivo 3 hr.

“Also recorded” adds a separate entry of the source. Non-standard residues stand in square brackets, D forms with d. Where only a bound is given, the exact number is not on record here.

Chain of Chk2 protein kinase (O96017 whole entry): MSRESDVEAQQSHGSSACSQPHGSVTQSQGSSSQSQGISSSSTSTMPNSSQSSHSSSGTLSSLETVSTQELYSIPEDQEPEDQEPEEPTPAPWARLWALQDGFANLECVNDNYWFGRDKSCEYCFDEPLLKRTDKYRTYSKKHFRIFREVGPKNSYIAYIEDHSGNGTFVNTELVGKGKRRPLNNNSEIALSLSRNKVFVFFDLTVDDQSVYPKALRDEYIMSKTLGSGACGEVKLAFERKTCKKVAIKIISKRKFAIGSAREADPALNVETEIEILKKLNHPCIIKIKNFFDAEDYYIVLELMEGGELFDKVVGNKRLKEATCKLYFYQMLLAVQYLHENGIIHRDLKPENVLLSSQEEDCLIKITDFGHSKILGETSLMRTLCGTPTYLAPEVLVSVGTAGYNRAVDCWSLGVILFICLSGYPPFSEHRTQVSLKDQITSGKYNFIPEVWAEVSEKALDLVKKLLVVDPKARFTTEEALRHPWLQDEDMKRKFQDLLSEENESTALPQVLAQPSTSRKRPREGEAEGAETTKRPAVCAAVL

Take `C/C(=N\N=C(N)N)c1cccc(NC(=S)Nc2cccc(/C(C)=N/N=C(N)N)c2)c1` [NSC-177941, 1,3-bis[3-[(E)-N-(diaminomethyllideneamino)-C-methylcarbonimidoyl]phenyl]thiourea]: the blood pressure entry in data set [1] is on record as “reducing blood pressure”. Moreover, the “inhibition of Chk2 protein kinase activity” value in [2] is “inactive”. In [3] (ITT in CST-KO mice), the “effect on insulin sensitivity in the first 30 min” value is on record as “ineffective” and the “time window of increase in insulin sensitivity” value fell in the range of 30 to 90 min. For the same compound, in data set [3], the “insulin sensitivity during ITT” value is “transient increase in insulin sensitivity”. The “insulin sensitivity during ITT” value in [3] (listed as NSC-177941) is on record as “Improvement in insulin sensitivity”.

As for `Cc1ccc(N(CC2=NCCN2)c2cccc(O)c2)cc1` [phentolamine, 3-[(4,5-dihydro-1H-imidazol-2-ylmethyl)(4-methylphenyl)amino]phenol], the “effect on the lipolytic effect of isoproterenol” value in data set [4] is given as “potentiated”. In addition, the “glycerol release (lipolysis)” value in data set [4] (primary adipocytes, substance alone) is listed as “stimulated lipolysis”.

Turning to `CC(C)NCC(O)c1ccc(O)c(O)c1` (racemic) [isoproterenol, (RS)-4-[1-hydroxy-2-(isopropylamino)ethyl]benzene-1,2-diol, reference compound], the cAMP production entry in data set [5] and in [6] was “stimulated” throughout.

As to “PST: anti-insulin CHGA-derived peptide pancreastatin (CHGA250-301) [reference compound]”, the “insulin sensitivity (GTT)” value in data set [7] is given as “reversed the phenotype”.

Take “leptin: adipokine hormone, ligand of leptin receptor (Ob-R)”: in data set [8], the AMPK phosphorylation entry is reported as “did not stimulate” and the STAT3 phosphorylation entry is on record as “did not stimulate”. In addition, in [9], the palmitate oxidation entry is “stimulatory for oxidation”. The “lipolysis (glycerol and NEFA release)” value in data set [9] (setting [16]) is recorded as “stimulated lipolysis”. In [10], the AMPK phosphorylation result was “stimulated phosphorylation” and the STAT3 phosphorylation result is listed as “stimulated phosphorylation”. Moreover, in [11], the “phosphorylation of AMPK following acute leptin treatment, compared to WT” value is given as “decreased” and the “phosphorylation of STAT3 following acute leptin treatment, compared to WT” value is recorded as “decreased”. The palmitate oxidation result in [12] is recorded as “neither CST nor leptin alone stimulated oxidation”. Also, in [12] (setting [16]), the “NEFA release in the media” value is listed as “did not stimulate lipolysis” and the “glycerol release in the media” value is reported as “did not stimulate lipolysis”.

For `CNC[C@H](O)c1cccc(O)c1` [phenylephrine, (R)-3-[-1-hydroxy-2-(methylamino)ethyl]phenol], in data set [4], the “effect on the lipolytic effect of isoproterenol” value is reported as “dampened”.

In the case of “amino-l372qpGpGrfGyararfslkmss352-carboxyl (SEQ ID NO:27) (H-[dL][dQ][dP]G[dP]G[dR][dF]G[dY][dA][dR][dA][dR][dF][dS][dL][dK][dM][dS][dS]-OH; SMILES CSCC[C@@H](NC(=O)[C@@H](CCCCN)NC(=O)[C@@H](CC(C)C)NC(=O)[C@@H](CO)NC(=O)[C@@H](Cc1ccccc1)NC(=O)[C@@H](CCCNC(=N)N)NC(=O)[C@@H](C)NC(=O)[C@@H](CCCNC(=N)N)NC(=O)[C@@H](C)NC(=O)[C@@H](Cc1ccc(O)cc1)NC(=O)CNC(=O)[C@@H](Cc1ccccc1)NC(=O)[C@@H](CCCNC(=N)N)NC(=O)CNC(=O)[C@H]1CCCN1C(=O)CNC(=O)[C@H]1CCCN1C(=O)[C@@H](CCC(N)=O)NC(=O)[C@H](N)CC(C)C)C(=O)N[C@H](CO)C(=O)N[C@H](CO)C(=O)O) [RI-CST, retro-inverso peptide equivalent of human CST]”, in data set [13], the protease degradation result is listed as “fairly resistant”. Also, the “persistence of the insulin-sensitizing effect” value in data set [3] (ITT in CST-KO mice) was “persisted throughout the experimental period”. The “insulin sensitivity during ITT” value in data set [3] is reported as “increasing sensitivity to insulin; also recorded: Improvement in insulin sensitivity”. For the same compound, the “period of BP suppression” value in data set [14] (compared to CST) is above 8 h. Moreover, the SBP result in data set [14] (hypertensive Chga-KO mice) is listed as “functional in reducing SBP”. In addition, the “interval for which the therapeutic BP effect was sustained” value in data set [15] (R-I versus W-T isoform) was above 8 h. Besides, the “high BP phenotype” value in [15] (monogenic model of hypertension) is recorded as “effective in rescuing (reducing) the high BP phenotype”.

(Values after patent publication US9572862B2, “Methods for promoting lipolysis and oxidation in liver and adipose tissue using catestatin” (The Regents of the University of California, priority 2012, dated 2017).)
